From US8785483B2, “Methods for treating COPD” (The Board of Regents of the University of Texas System, priority 2010, dated 2014)

Experiments:
Muc5AC [1] = experiment: RT-PCR of Muc5AC in IL-13-treated SAEC monolayer; type: cell-based, human; conditions: SAEC monolayer at ALI, IL-13 18 h
Procedure: FIGS. 6A-6B. AR inhibition prevents IL-13-induced expression of Mucin and transcription factor SPDEF in airway epithelial cell monolayer. (A) The airway epithelial cell monolayer at ALI was serum starved without or with fidarestat and incubated with IL-13 for 18 h. Total RNA was isolated and subsequently RT-PCR was performed to assess the expression of Muc5AC and SPDEF. The bar diagrams show densitometric analysis of the corresponding blots (n=4). *p<0.001 vs Control; **p<0.001 vs IL-13; (B) The monolayer of ciliated airway cells at ALI was treated with AR inhibitor for 24 h and subsequently incubated with IL-13 for 24 or 48 h. At the end of incubation, cell lysate was prepared and subjected to western blotting using antibodies against Muc5AC, Muc5B, and SPDEF. The membranes were stripped and re-probed with antibodies against GAPDH to show the equal loading of protein. A representative blot is shown (n=4). *p<0.0001 vs Control; **p<0.001 vs IL-13.
For air-liquid interface (ALI) culture, SAEC were seeded at 8.5×10^4 cells/12-mm-diameter PET transparent insert with […] pores (12-well millicell culture insert; Millipore) and pre-coated with rat tail collagen type-1 (Sigma-Aldrich). The cells were grown submerged in the differentiation medium as described earlier by Zhen et al. (Am J Respir Cell Mol Biol 36: 244-253, 2007). […]

Muc5AC [2] = experiment: Muc5AC ELISA in culture medium; type: cell-based, human; conditions: airway epithelial monolayer, IL-13 48 h
Procedure: FIGS. 5A-5B. AR inhibition prevents IL-13-induced goblet cell metaplasia and expression of Muc5AC in airway epithelial monolayer. (A) The well-differentiated airway epithelial cells at air-liquid interface (ALI) were incubated with IL-13 for 48 h without or with AR inhibitor, fidarestat. The monolayer was fixed as described and immunohistochemistry using Muc5AC antibodies was performed on the sections. A representative photomicrograph is shown (n=4); magnification 400×. […] (C) The airway epithelial monolayer was incubated with IL-13 submerged in basal medium for 48 h in the absence and presence of AR inhibitor, fidarestat. The culture medium was collected from the top chamber and utilized for determination of Muc5AC by an ELISA, (n=4); *p<0.005 vs Control; **p<0.01 vs IL-13. For air-liquid interface (ALI) culture, SAEC were seeded at 8.5×10^4 cells/12-mm-diameter PET transparent insert with […] pores (12-well millicell culture insert; Millipore) and pre-coated with rat tail collagen type-1 (Sigma-Aldrich). The cells were grown submerged in the differentiation medium as described earlier by Zhen et al. (Am J Respir Cell Mol Biol 36: 244-253, 2007). […] Muc5AC levels in the culture medium were assessed by ELISA using commercially available human anti-Muc5AC ELISA essentially as described by the manufacturer (Cosmo Bio USA; Carlsbad, Calif.).

NC(=O)[C@@H]1C[C@]2(NC(=O)NC2=O)c2cc(F)ccc2O1 [fidarestat, (2S,4S)-2-aminoformyl-6-fluoro-spiro[chroman-4,4′-imidazolidine]-2′,5′-dione]
IL-13-induced Muc5AC-specific RNA expression (Muc5AC [1]): significantly prevented the increase
prevention of IL-13-induced secretion of Muc5AC in the medium (Muc5AC [2]): ~80%
